Consider 2 compounds from PubChem BioAssay AID1259407 (Chemical Carcinogenesis Research Information System (CCRIS), 2018).

In the data set the test system is CCRIS mutagenicity, Ames/micronucleus/aberration tests. In words: CCRIS mutagenicity studies.

The source made the active and inactive calls. The rule behind the calls is not given here.

Take `O=C(O)c1ccccc1Nc1cccc(C(F)(F)F)c1`: the mutagenic call reads like this: (Test System: AMES SALMONELLA TYPHIMURIUM, Strain/Indicator: TA98, Metabolic Activation: RAT, LIVER, S-9, PCB, Method: STANDARD PLATE) “inactive; negative”; (Test System: AMES SALMONELLA TYPHIMURIUM, Strain/Indicator: TA100, Metabolic Activation: RAT, LIVER, S-9, PCB, Method: STANDARD PLATE) “inactive; negative”; (Test System: AMES SALMONELLA TYPHIMURIUM, Strain/Indicator: TA1537, Metabolic Activation: RAT, LIVER, S-9, PCB, Method: STANDARD PLATE) “inactive; negative”; (Test System: AMES SALMONELLA TYPHIMURIUM, Strain/Indicator: TA1538, Metabolic Activation: RAT, LIVER, S-9, PCB, Method: STANDARD PLATE) “inactive; negative”; (Test System: E. COLI, Strain/Indicator: WP2 UVRA, Metabolic Activation: RAT, LIVER, S-9, PCB, Method: STANDARD PLATE) “inactive; negative”.

As to `N#CC(Br)Br`, the mutagenic call (End Point: In vivo micronucleus, Test System: Peripheral blood normochromatic erythrocytes, Species: Mouse, Strain/Sex: B6C3F1/ Female, Route: Oral) is “inactive; negative”; the mutagenic call (End Point: In vivo micronucleus, Test System: Peripheral blood normochromatic erythrocytes, Species: Mouse, Strain/Sex: B6C3F1/ Male, Route: Oral) is “inactive; negative”; the mutagenic call (Test System: AMES SALMONELLA TYPHIMURIUM, Strain/Indicator: TA98, Metabolic Activation: NONE, Method: STANDARD PLATE) was “inactive; negative”; the mutagenic call (Test System: AMES SALMONELLA TYPHIMURIUM, Strain/Indicator: TA98, Metabolic Activation: RAT, LIVER, S-9, AROCLOR 1254, Method: STANDARD PLATE) was “inactive; negative”; the mutagenic call (Test System: AMES SALMONELLA TYPHIMURIUM, Strain/Indicator: TA100, Metabolic Activation: NONE, Method: FLUCTUATION TEST) was “inactive; negative”; the mutagenic call (Test System: AMES SALMONELLA TYPHIMURIUM, Strain/Indicator: TA100, Metabolic Activation: NONE, Method: STANDARD PLATE) was “inactive; negative”. In addition, the mutagenic call (Test System: AMES SALMONELLA TYPHIMURIUM, Strain/Indicator: TA100, Metabolic Activation: RAT, LIVER, S-9, AROCLOR 1254, Method: FLUCTUATION TEST) was “inactive; negative”; the mutagenic call (Test System: AMES SALMONELLA TYPHIMURIUM, Strain/Indicator: TA100, Metabolic Activation: RAT, LIVER, S-9, AROCLOR 1254, Method: STANDARD PLATE) is “inactive; negative”; the mutagenic call (Test System: AMES SALMONELLA TYPHIMURIUM, Strain/Indicator: TA1535, Metabolic Activation: NONE, Method: STANDARD PLATE) is “inactive; negative”; the mutagenic call (Test System: AMES SALMONELLA TYPHIMURIUM, Strain/Indicator: TA1535, Metabolic Activation: RAT, LIVER, S-9, AROCLOR 1254, Method: STANDARD PLATE) is “inactive; negative”; the mutagenic call (Test System: Ames Salmonella typhimurium, Strain/Indicator: TA97, Metabolic Activation: Hamster, Liver, S-9, Aroclor 1254 (10%), Method: Preincubation) is “active; positive”; the mutagenic call (Test System: Ames Salmonella typhimurium, Strain/Indicator: TA97, Metabolic Activation: Hamster, Liver, S-9, Aroclor 1254 (30%), Method: Preincubation) was “inactive; negative”. Besides, the mutagenic call (Test System: Ames Salmonella typhimurium, Strain/Indicator: TA97, Metabolic Activation: None, Method: Preincubation) was “active; positive”; the mutagenic call (Test System: Ames Salmonella typhimurium, Strain/Indicator: TA97, Metabolic Activation: Rat, Liver, S-9, Aroclor 1254 (10%), Method: Preincubation) was “active; positive”; the mutagenic call (Test System: Ames Salmonella typhimurium, Strain/Indicator: TA97, Metabolic Activation: Rat, Liver, S-9, Aroclor 1254 (30%), Method: Preincubation) is “inactive; negative”; the mutagenic call (Test System: Ames Salmonella typhimurium, Strain/Indicator: TA98, Metabolic Activation: Hamster, Liver, S-9, Aroclor 1254 (10%), Method: Preincubation) is “inactive; negative”; the mutagenic call (Test System: Ames Salmonella typhimurium, Strain/Indicator: TA98, Metabolic Activation: Hamster, Liver, S-9, Aroclor 1254 (10 and 30%), Method: Preincubation) is “inactive; negative”; the mutagenic call (Test System: Ames Salmonella typhimurium, Strain/Indicator: TA98, Metabolic Activation: None, Method: Preincubation) was “inactive; negative”. Moreover, the mutagenic call (Test System: Ames Salmonella typhimurium, Strain/Indicator: TA98, Metabolic Activation: Rat, Liver, S-9, Aroclor 1254 (10%), Method: Preincubation) is “inactive; negative”; the mutagenic call (Test System: Ames Salmonella typhimurium, Strain/Indicator: TA98, Metabolic Activation: Rat, Liver, S-9, Aroclor 1254 (10 and 30%), Method: Preincubation) is “inactive; negative”; the mutagenic call (Test System: Ames Salmonella typhimurium, Strain/Indicator: TA100, Metabolic Activation: Hamster, Liver, S-9, Aroclor 1254 (30%), Method: Preincubation) was “inactive; negative”; the mutagenic call (Test System: Ames Salmonella typhimurium, Strain/Indicator: TA100, Metabolic Activation: Rat, Liver, S-9, Aroclor 1254 (10%), Method: Preincubation) was “inactive; negative”; the mutagenic call (Test System: Ames Salmonella typhimurium, Strain/Indicator: TA1535, Metabolic Activation: None, Method: Preincubation) is “inactive; negative”; the mutagenic call (Test System: Ames Salmonella typhimurium, Strain/Indicator: TA1535, Metabolic Activation: Rat, Liver, S-9, Aroclor 1254 (30%), Method: Preincubation) was “inactive; negative”. The mutagenic call was “inactive; negative” (Test System: Ames Salmonella typhimurium, Strain/Indicator: TA1537, Metabolic Activation: Hamster, Liver, S-9, Aroclor 1254 (30%), Method: Preincubation); “inactive; negative” (Test System: Ames Salmonella typhimurium, Strain/Indicator: TA1537, Metabolic Activation: None, Method: Preincubation); “inactive; negative” (Test System: Ames Salmonella typhimurium, Strain/Indicator: TA1537, Metabolic Activation: Rat, Liver, S-9, Aroclor 1254 (10%), Method: Preincubation); “inactive; negative” (Test System: Ames Salmonella typhimurium, Strain/Indicator: TA1538, Metabolic Activation: None, Method: Preincubation); “active; positive” (Test System: E. coli, Strain/Indicator: WPM uvrA/pKM101, Metabolic Activation: Hamster, Liver, S-9, Aroclor 1254 (10%), Method: Preincubation); “inactive; negative” (Test System: E. coli, Strain/Indicator: WPM uvrA/pKM101, Metabolic Activation: None, Method: Preincubation). The mutagenic call (Test System: E. coli, Strain/Indicator: WPM uvrA/pKM101, Metabolic Activation: Rat, Liver, S-9, Aroclor 1254 (10%), Method: Preincubation) is “inactive; negative”.
